The term Kd denotes a measure of binding affinity in units of concentration. A higher Kd goes with weaker binding.

Molecules are shown by their SMILES.

A short description of the assay: Fluorescence Based Assay: The details of the KEAP1 KELCH ThermoFluor® Assay Construct are as follows: Kelch domain of human KEAP 1 (321-624 aa) was used in the assay. The protein was expressed in E. coli with 6His tag that was cleaved prior to receipt for use.ThermoFluor® experiments were carried out using instruments owned by Janssen Research and Discovery, L.L.C. through its acquisition of 3-Dimensional Pharmaceuticals, Inc. 1,8-ANS (Invitrogen) was used as a fluorescent dye. Protein (KEAP Kelch) and compound solutions were dispensed into black 384-well polypropylene PCR microplates (Abgene) and overlayed with silicone oil (1 μL, Fluka, type DC 200) to prevent evaporation.Reference wells contained KEAP Kelch without compounds, and the assay conditions were as follows: 1.1 μM (0.037mg/mL) KEAP Kelch, 80 μM 1,8-ANS, 25 mM PIPES, pH 7.0, 100 mM NaCl, 0.002% Tween-20. A general note: DSF heats the sample and reads unfolding from a dye or from intrinsic fluorescence.
Consider `Cc1ccc([C@H](CC(=O)O)c2ccn3c(C(F)(F)F)nnc3c2C)nc1CN1C[C@@H]2CCCCN2c2ncc(C#N)cc2S1(=O)=O`, for which the Kd is less than 1 nM.

As to `Cc1ccc([C@@H](CC(=O)O)c2ccn3c(C(F)(F)F)nnc3c2C)cc1CN1C[C@H]2CCC(F)(F)CN2c2ncccc2S1(=O)=O`, the Kd is less than 1 nM.

As to `Cc1ccc([C@H](CC(=O)O)c2ccn3c(C(F)(F)F)nnc3c2C)cc1CN1C[C@@H]2CCCCN2c2ncc(C#N)cc2S1(=O)=O`, the Kd was less than 1 nM.

`Cc1ccc([C@H](CC(=O)O)c2ccn3c(C(F)(F)F)nnc3c2C)nc1CN1CC2(CC2)Oc2ncccc2S1(=O)=O`: the Kd is less than 1 nM.

Consider `Cc1ccc([C@H](CC(=O)O)c2ccn3c(C(F)(F)F)nnc3c2C)cc1CN1C[C@@H]2CCCCN2c2ncccc2S1(=O)=O`, for which the Kd is less than 1 nM.

For the compound `Cc1cnc2c(c1)S(=O)(=O)N(Cc1cc([C@@H](c3ccn4c(C(F)(F)F)nnc4c3C)C(C)(C)C(=O)O)ccc1C)C[C@]1(CCOC1)O2`, the dissociation constant (Kd) was less than 1 nM.

`Cc1c(C(CC(=O)O)c2ccc(Cl)c(CN3CC4CCCCN4c4ncc(F)cc4S3(=O)=O)c2)ccn2c(C(F)(F)F)nnc12` (stereo not given) gave a Kd of less than 1 nM.

Compound `Cc1ccc([C@H](c2ccn3c(C(F)(F)F)nnc3c2C)C(C)(C)C(=O)O)cc1CN1CC2(CCOCC2)Oc2nc(N[C@H](C)CN3CCCCC3)c(C)cc2S1(=O)=O` registered a Kd of less than 1 nM.

On to `Cc1cc2cc([C@H](CC(=O)O)c3ccc(C)c(CN4C[C@H]5CCCCN5c5ncccc5S4(=O)=O)c3)n(C)c2nn1`, for which the Kd is less than 1 nM.

For the compound `Cc1ccc(C(CC(=O)O)c2ccn3c(C(F)F)nnc3c2C)cc1CN1C[C@H]2CCCN2c2ncccc2S1(=O)=O` (stereo not given in full), the Kd is less than 1 nM.

In turn, `Cc1cnc2c(c1)S(=O)(=O)N(Cc1cc([C@@H](c3ccn4c(C(F)F)nnc4c3C)C(C)(C)C(=O)O)ccc1C)CC1(COC1)O2` had a Kd of less than 1 nM.

Regarding `Cc1ccc(C(CC(=O)O)c2ccc3c(nnn3C3CC3)c2C)cc1CN1C[C@@H]2CCCCN2c2ncccc2S1(=O)=O` (stereo not given in full), the Kd was less than 1 nM.

In turn, `Cc1ccc([C@@H](c2ccn3c(C(F)(F)F)nnc3c2C)C(C)(C)C(=O)O)cc1CN1CC2(CCOCC2)Oc2nc(OCCN3CCCCC3)c(C)cc2S1(=O)=O` gave a Kd of less than 1 nM.

Regarding `Cc1ccc(C(CC(=O)O)c2ccn3c(C(F)(F)F)nnc3c2C)nc1CN1CC2(CC2)Oc2ncccc2S1(=O)=O` (stereo not given), the Kd was less than 1 nM.

As to `Cc1c([C@H](CC(=O)O)c2ccc(Cl)c(CN3CC4CCCCN4c4ncc(F)cc4S3(=O)=O)c2)ccn2c(C(F)(F)F)nnc12` (stereo not given in full), the Kd was less than 1 nM.

As to `CCn1nnc2c(C)c(C(CC(=O)O)c3ccc(C)c(CN4CC5(CCOCC5)Oc5ccc(F)cc5S4(=O)=O)n3)ccc21` (stereo not given), the Kd is less than 1 nM.

Consider `Cc1ncc([C@H](c2ccn3c(C(F)(F)F)nnc3c2C)C(C)(C)C(=O)O)cc1CN1C[C@@H]2CCCCN2c2ncc(C#N)cc2S1(=O)=O`, for which the Kd is less than 1 nM.

The compound `Cc1ccc([C@H](CC(=O)O)c2ccn3c(C(F)F)nnc3c2C)cc1CN1CC2(CC2)Oc2ncc(F)cc2S1(=O)=O` had a Kd of less than 1 nM.

For the compound `Cc1cnc2c(c1)S(=O)(=O)N(Cc1cc([C@H](c3ccn4c(C(F)(F)F)nnc4c3C)C(C)(C)C(=O)O)cnc1C)CC1(CCOCC1)O2`, the Kd was less than 1 nM.

`Cc1ccc([C@H](CC(=O)O)c2ccn3c(C4CC4)nnc3c2C)cc1CN1C[C@H]2CCCN2c2ncccc2S1(=O)=O`: the Kd is less than 1 nM.

In turn, `CCn1nnc2c(C)c([C@H](CC(=O)O)c3ccc(C)c(CN4C[C@@H]5CCCCN5c5ncccc5S4(=O)=O)n3)ccc21` had a Kd of less than 1 nM.

In the case of `Cc1ccc([C@@H](CC(=O)O)c2ccn3c(C(F)(F)F)nnc3c2C)cc1CN1CC2(COC2)Oc2ncccc2S1(=O)=O`, the Kd is less than 1 nM.

`Cc1ccc(C(CC(=O)O)c2ccc3c(nnn3CC3CC3)c2C)cc1CN1C[C@@H]2CCCCN2c2ncccc2S1(=O)=O` (stereo not given in full) came in with a Kd of less than 1 nM.

Consider `Cc1ccc([C@@H](c2ccn3c(C(F)F)nnc3c2C)C(C)(C)C(=O)O)cc1CN1CC2(CCOCC2)Oc2ncccc2S1(=O)=O`, for which the Kd was less than 1 nM.

The compound `Cc1ccc(C(CC(=O)O)c2ccn3c(C(F)(F)F)nnc3c2C)nc1CN1CC2CCCCN2c2ncc(Cl)cc2S1(=O)=O` (stereo not given) showed a Kd of less than 1 nM.

The compound `Cc1cnc([C@@H](c2ccn3c(C(F)F)nnc3c2C)C(C)(C)C(=O)O)cc1CN1CC2(CC2)Oc2nc(OCCN3CCCC3)c(C)cc2S1(=O)=O` displayed a Kd of less than 1 nM.

With `Cc1ccc([C@@H](CC(=O)O)c2ccn3c(C(F)F)nnc3c2C)cc1CN1CC2(CC2)Oc2ncc(F)cc2S1(=O)=O`, the dissociation constant (Kd) is less than 1 nM.

`Cc1ccc([C@H](c2ccn3c(C(F)(F)F)nnc3c2C)C(C)(C)C(=O)O)cc1CN1CC2(CCOCC2)Oc2nc(NC3CC(O)C3)c(C)cc2S1(=O)=O` (stereo not given in full) displayed a Kd of less than 1 nM.

`Cc1ccc([C@@H](CC(=O)O)c2ccn3c(C(F)(F)F)nnc3c2C)nc1CN1C[C@@H]2CCCCN2c2ncc(Cl)cc2S1(=O)=O` returned a Kd of less than 1 nM.

Regarding `Cc1ccc([C@@H](CC(=O)O)c2ccn3c(C(F)(F)F)nnc3c2C)nc1CN1CC2(COC2)Oc2ccccc2S1(=O)=O`, the Kd was less than 1 nM.

`Cc1cnc2c(c1)S(=O)(=O)N(Cc1cc([C@@H](c3ccn4c(C5CC5)nnc4c3C)C(C)(C)C(=O)O)ccc1C)CC1(CC1)O2`: the Kd is less than 1 nM.

For `Cc1ccc(C(c2ccn3c(C(F)F)nnc3c2C)C(C)(C)C(=O)O)cc1CN1CC2(CCOCC2)Oc2ncccc2S1(=O)=O` (stereo not given), the Kd was less than 1 nM.

`CC[C@@H]1CN(Cc2cc(C(CC(=O)O)c3ccn4c(C(F)F)nnc4c3C)ccc2C)S(=O)(=O)c2cccnc2O1` (stereo not given in full) came in with a Kd of less than 1 nM.

`Cc1ccc([C@@H](c2ccn3c(C(F)F)nnc3c2C)C(C)(C)C(=O)O)cc1CN1CC2(CCOCC2)Oc2nc(OCCN3CCOCC3)ccc2S1(=O)=O` showed a Kd of less than 1 nM.

The compound `Cc1cnc2c(c1)S(=O)(=O)N(Cc1cc(C(c3ccn4c(C(F)F)nnc4c3C)C(C)(C)C(=O)O)ccc1C)CC1(CCOCC1)O2` (stereo not given) came in with a Kd of less than 1 nM.

`Cc1ccc([C@@H](c2ccn3c(C(F)(F)F)nnc3c2C)C(C)(C)C(=O)O)cc1CN1CC2(CCOCC2)Oc2nc(OCCN3CCOCC3)ccc2S1(=O)=O` showed a Kd of less than 1 nM.

On to `Cc1cnc2c(c1)S(=O)(=O)N(Cc1cc([C@@H](c3ccc4c(nnn4C4CC4)c3C)C(C)(C)C(=O)O)cnc1C)CC1(CC1)O2`, for which the Kd is less than 1 nM.

As for `CCn1nnc2c(C)c([C@@H](CC(=O)O)c3ccc(C)c(CN4CC5(CC5)Oc5ncccc5S4(=O)=O)n3)ccc21`, the Kd is less than 1 nM.

Compound `Cc1ccc([C@H](CC(=O)O)c2ccn3c(C(F)F)nnc3c2C)cc1CN1C[C@@H]2COCCN2c2ncccc2S1(=O)=O` showed a Kd of less than 1 nM.

`Cc1ccc(C(CC(=O)O)c2ccn3c(C(F)(F)F)nnc3c2C)nc1CN1CC2(CC2)Oc2ncc(F)cc2S1(=O)=O` (stereo not given) registered a Kd of less than 1 nM.

For `Cc1ccc([C@H](CC(=O)O)c2ccn3c(C(F)F)nnc3c2C)cc1CN1C[C@@H]2CCCN2c2ncc(C#N)cc2S1(=O)=O`, the Kd was less than 1 nM.

Take `Cc1ccc([C@@H](c2ccn3c(C(F)F)nnc3c2C)C(C)(C)C(=O)O)cc1CN1CC2(CC2)Oc2nc(OCCN3CCCC3)c(C)cc2S1(=O)=O`: the Kd is less than 1 nM.

Compound `Cc1ccc(C(c2ccn3c(C(F)(F)F)nnc3c2C)C(C)(C)C(=O)O)cc1CN1CC2(CCOCC2)Oc2nc(N[C@H](C)CCO)ccc2S1(=O)=O` (stereo not given in full) displayed a Kd of less than 1 nM.

On to `CCn1nnc2c(C)c(C(CC(=O)O)c3ccc(C)c(CN4C[C@@H]5CCCN5c5ncccc5S4(=O)=O)c3)ccc21` (stereo not given in full), for which the Kd is less than 1 nM.

For the compound `Cc1c([C@@H](CC(=O)O)c2ccc(Cl)c(CN3CC4CCCCN4c4ncc(F)cc4S3(=O)=O)c2)ccn2c(C(F)(F)F)nnc12` (stereo not given in full), the Kd was less than 1 nM.

The values are drawn from ChEMBL document CHEMBL5729293, “Inhibitors of KEAP1-Nrf2 protein-protein interaction” (2022).
